Data published in patent US4714619A, “Aminomalonyl alanine compounds as dietary sweeteners” (priority 1986, dated 1987).
Entries after “also recorded” stand apart in the source; their conditions may differ. Read-outs that look alike come from different tables or passages of the source.

Key:
[1] = cited from earlier work
[2] = monkeys; cited from earlier work
[3] = Acute oral toxicity testing; type: in vivo, Swiss male mice
Procedure: The isopropyl ester was evaluated for acute oral toxicity in Swiss male mice. The testing parameters were as follows: each test group contained six mice (20-30 grams each); the isopropyl ester was administered in an aqueous solution as a single oral dose of 100 mg/kg and 300 mg/kg; two solvent controls were also administered; the mice were again given food two hours after sample administration.
Body weights were measured on day -3, 0, +7 and +14. Physiological parameters were examined the entire first day, then three times a day through the first week and twice a day for the second week. Blood serum analyses for urea nitrogen and alanine aminotransferase activities were measured on day -3 and day +14. On day 14, a gross necropsy was performed on each mouse.
Blood samples were collected from the tail vein for biochemical testing of serum samples. This procedure virtually eliminated hemolyzed samples.

[4] = Comparative taste test, D- versus L-configuration (Table 2, FIG. 3); design: Sweet? (average score) / Bitter? (average score) / Salty? (average score) / Off Taste? (average score) / After Taste? (average score): scale not given here
Procedure: The compounds were dissolved in distilled water at the concentrations specified in Table 2. Solutions were made up and kept overnight in a refrigerator. The following day, they were poured into individual graduated plastic cups (10 ml per cup) and allowed to warm to room temperature. A taste panel was convened and testing begun that same day. Tasting and evaluation was done by the standard protocol developed by Dr. Robert Gesteland of Taste and Smell Consulting Group, Inc.
The first solution tasted (reference standard for the panel) was 0.25M sucrose. Other solutions were tasted in radomized fashion. The random order was arrived at as follows:
i. An ordered list of the compounds and concentrations was prepared (26 solutions in all).
ii. 0.25M sucrose was designated as 1.
iii. A standard table of random numbers was used in which the numbers were grouped as two-digit numbers. A point in the table was chosen at random (blind pointing). The first solution in the list was given the first random number in the sequence (read right-to-left, up-to-down) which is between 2 and 26. The second solution in the list was given the next random number in the sequence between 2 and 26, etc. Repeat numbers were ignored.
iv. Solutions were then labeled A (for number 1) B (for random number 2), C-Z.
v. Panelists were instructed to taste the solutions in alphabetical order.
With the assistance of Taste and Smell Consulting Group, Inc., taste panel members were trained adn tested for their ability to discriminate sucrose solutions of varying concentrations. In summary it may be stated that all 9 panel members had acceptble correlation scores. Their results were in good agreement with those which have been previously reported in siilar types of studies. For the test series the correlations for each panelist for sucrose and aspartame were acceptable as were the overall results obtained by averaging individual scores. The results of the taste panel are set forth in Table 2 wherein the parenthetical figures represent the standard error values for the number above.

[5] = test system: five Salmonella strains; assay: Ames/Salmonella mutagenicity assay; type: cell-based; settings: 0.3-3000 ug/plate, with and without S9; toxicity at the two highest doses
Procedure: The isopropyl ester was tested for mutuagenic potential in the Ames assay employing: (1) five Salmonella strains which detect frameshift mutagens or base-pair substitution mutagens, (2) both the presence and absence of mammalian S9 microsomal liver fraction as the metabolic activator, which differentiate promutagens from direct-acting mutagens, (3) five dose levels (3000, 300, 30, 3, 0.3 ug/plate), and (4) three plates per dose. The compound was also tested for toxicity, with and without S9 activation, at the two highest doses. […] Positive controls and spontaneous background revertants were within acceptable ranges.

[6] = Stability in aqueous solution (hplc, ambient temperature); type: physicochemical; settings: for degraded at 864 h: 0.05m phosphate buffer, ambient temperature, read-out: degradation
Procedure: Stability was examined in aqueous solution at various pHs. Solutions (1% w/v) were prepared in 0.05M phosphate buffer adjusted to pH 7.4 and pH 3.5. Storage at ambient temperature over 36 days was monitored by hplc analysis (waters radial-pak reverse phase C-8 column, 25% CH3 CN, 0.05% TFA/H2 O eluant, 210 nm U.V. detection). Aspartame was examined similarly for comparison purposes.

[7] = Taste panel (Table 1, FIG. 2); settings: for After Taste? (average score) / Bitter? (average score) / Off Taste? (average score) / Pleasant? (average score) / Salty? (average score) / Sweet? (average score): normalized to 100
[8] = neonatal mice; cited from earlier work
[9] = single oral dose 100 and 300 mg/kg, 14 days

## N[C@@H](Cc1ccccc1)C(=O)O [phenylalanine]
[1]; in vivo
  behavioral changes and brain chemistry: induce behavioral changes, and alter brain chemistry
[1]; pregnant women with phenylketonuria
  birth defects: produce birth defects in pregnant women with phenylketonuria
[2]
  grand mal-type seizures: reported to induce grand mal-type seizures in monkeys

## CC(C)OC(=O)[C@@H](C)NC(=O)C(N)C(=O)O (mixture of isomers) [Compound (8), DL-Aminomalonyl-D-Alanine Isopropyl Ester]
[3]; day 14, 100 and 300 mg/kg oral
  gross necropsy: No toxic effects were detected
[3]; from serum urea nitrogen and alanine aminotransferase, 100 and 300 mg/kg oral
  kidney and liver toxicity: absence of kidney and liver toxicity
[3]; post-study samples, 100 or 300 mg/kg oral
  serum urea nitrogen and alanine aminotransferase activity: Neither elevated serum urea nitrogen nor elevated alanine aminotransferase activity were detected
[3]; single oral dose 100 and 300 mg/kg
  behavioral or pharmacological effects: no behavioral or pharmacological effects were observed
[3]; single oral dose 100 and 300 mg/kg, 14-day study
  body weights: normal
[3]; [9]
  acute oral toxicity: no toxic effect; also recorded: nontoxic at all doses tested
  eating or drinking: no excessive eating or drinking
[4]
  sweet taste (words): sweet
[4]; 0.0431 Millimolar
  After Taste? (average score): 0
  Bitter? (average score): 1
  Off Taste? (average score): 2
  Pleasant? (average score): 15
  Salty? (average score): 1
  Sweet? (average score): 2
[4]; 0.4307 Millimolar
  After Taste? (average score): 7
  Bitter? (average score): 12
  Off Taste? (average score): 8
  Pleasant? (average score): 10
  Salty? (average score): 11
  Sweet? (average score): 1
[4]; 4.3066 Millimolar
  After Taste? (average score): 5
  Bitter? (average score): 0
  Off Taste? (average score): 3
  Pleasant? (average score): 24
  Salty? (average score): 12
  Sweet? (average score): 28
[5]
  mutagenic potential and toxicity in Ames assay: neither mutagenic potential nor toxicity
[6]; pH 3.5, 36 days
  degraded at 864 h: < 5%
  improvement in stability relative to aspartame: ten fold improvement in stability
[6]; pH 7.4 buffer, 36 days
  degraded at 864 h: 70%
[7]; 0.8621 Millimolar
  After Taste? (average score): 4
  Bitter? (average score): 7
  Off Taste? (average score): 13
  Pleasant? (average score): -11
  Salty? (average score): 21
  Sweet? (average score): 4
[7]; 3.0172 Millimolar
  After Taste? (average score): 6
  Bitter? (average score): 3
  Off Taste? (average score): 2
  Pleasant? (average score): 13
  Salty? (average score): 5
  Sweet? (average score): 32
[7]; 9.0517 Millimolar
  After Taste? (average score): 4
  Bitter? (average score): 1
  Off Taste? (average score): 3
  Pleasant? (average score): 34
  Salty? (average score): 3
  Sweet? (average score): 61
[7]; compared to saccharin
  aftertaste / side tastes: does not possess a "metallic" aftertaste, and there are virtually no detracting side tastes
[7]; sucrose=1.0, weight scale
  sweetness potency (reciprocal of concentration required for a score of 50): 58
[7]; taste panel
  onset and decay of sweet taste: rapid onset and a rapid decay of sweet taste
  taste quality: uncommon sucrose-like sweet taste that is free of detracting side and after tastes; also recorded: sweet and pleasant
[7]; weight basis
  sweetness relative to aspartame: about half as sweet as aspartame
  times sweeter than sucrose: 58 times

## N[C@@H](CC(=O)O)C(=O)O [aspartic acid]
[8]
  brain lesions: causes brain lesions in neonatal mice
